Results reported in patent US10435364B2, “Compounds for use as bromodomain inhibitors” (Albert Ludwigs Universität Freiburg, priority 2013, dated 2019).
Like-named read-outs stand apart in the source and are kept apart here.

Columns and labels:
[1] = molecular target: T1, BRD4-BD1 (Homo sapiens, UniProt O60885); assay: Isothermal titration calorimetry (ITC), dissociation constant; type: binding
T1 construct: BRD4-BD1 was expressed and purified as described previously; made in house
Method: Data were obtained in discrete titration experiments with an injection volume of 12 μl per injection. Subsequently, the heats per injection were calculated as integrals and after normalization against the molar concentrations plotted against the molar ratio as implemented in Microcal Origin. Finally, data were fitted according to a single set of sites binding model with
[formula] as function to calculate the overall sum of heat of the titration and with
[formula] […] A correction term was included to compensate for displacement of volume of the sample cell in the course of subsequent injections according to the manufacturer's manual “ITC Data Analysis in Origin” (Microcal).
The dissociation constant has molar units which correspond to the concentration of ligand at which the binding site on a particular protein is half occupied, i.e. the concentration of the ligand at which the concentration of protein with ligand bound equals the concentration of protein with no ligand bound. The smaller the dissociation constant, the higher the affinity between ligand and protein.

[2] = test system: HeLa; assay: Antiproliferative activity, HeLa cells; type: cell-based; conditions: at a high concentration of 50 μM
Method: BRD4 is a validated therapeutic target in NUT midline carcinoma and in acute myeloid and MLL-fusion leukaemia. The proliferation inhibition potential of the virtual screening hits in HL-60 and HeLa cell lines for the compound of formula (4) was assessed.

[3] = test system: leukaemia cell lines; assay: NCI-60 DTP Human Tumour Cell Line Screen, leukaemia panel; type: cell-based; conditions: NCI-60 screen, 10 μM
[4] = test system: HL-60(TB); assay: NCI-60 DTP Human Tumour Cell Line Screen; type: cell-based; conditions: NCI-60 screen, 10 μM, leukaemia panel
[5] = test system: SR; assay: NCI-60 DTP Human Tumour Cell Line Screen; type: cell-based; conditions: NCI-60 screen, 10 μM, leukaemia panel
[6] = test system: OVCAR-5; assay: NCI-60 DTP Human Tumour Cell Line Screen; type: cell-based; conditions: NCI-60 screen, 10 μM, ovarian cancer
[7] = test system: COLO 205; assay: NCI-60 DTP Human Tumour Cell Line Screen; type: cell-based; conditions: NCI-60 screen, 10 μM, colon cancer
[8] = test system: mice (male and female); assay: Toxicity screening, single dose; type: in vivo
Source text: […]. All studied organs and tissues had the structure characteristics and relative body weights for normal animals.

[9] = test system: T2, BET bromodomain family; assay: BROMOscan selectivity profile; type: binding, human
T2 construct: other: BROMOscan
Method: (§1) Bromodomain profiling was carried out on the basis of BROMOscan™. This platform accounted for the indirect determination of the dissociation constants between 19 bromodomains and the compound of formula (4), by binding competition against a reference immobilized ligand.
(§2) The target selectivity of the compound of formula (4) within the human BRD family was assessed by means of BROMOscan™. The binding of the compound to at least one representative protein of each BRD family was assessed.
Sphere size and colour indicate the binding affinity of the compound of formula (4) to the specific BRDs, as observed in the BROMOscan™ assay. Additionally, binding to PB1-BD4 was assessed by local ITC measurements. The dissociation constant (Kd) corresponding to each BRD in complex with the compound of formula (4) is indicated. […]

[10] = molecular target: T3, BRD2(1) (Homo sapiens, UniProt P25440); assay: BROMOscan; type: binding; conditions: BROMOscan
T3 construct: T7 phage strains displaying bromodomains; host or cells: T7 phage display in E. coli host derived from BL21
T3 sequence (P25440 74-180 limits assumed): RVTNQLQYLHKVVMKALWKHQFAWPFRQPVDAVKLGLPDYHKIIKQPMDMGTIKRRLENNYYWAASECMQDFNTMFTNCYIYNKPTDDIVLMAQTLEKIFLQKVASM

[11] = molecular target: T4, BRD3(1) (Homo sapiens, UniProt Q15059); assay: BROMOscan; type: binding; conditions: BROMOscan
T4 construct: T7 phage strains displaying bromodomains; host or cells: T7 phage display in E. coli host derived from BL21
T4 sequence (Q15059 34-140 limits assumed): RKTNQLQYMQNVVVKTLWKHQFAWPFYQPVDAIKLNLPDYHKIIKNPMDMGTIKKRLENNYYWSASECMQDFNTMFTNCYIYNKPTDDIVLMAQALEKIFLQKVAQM

[12] = molecular target: T5, BRD3(2) (Homo sapiens, UniProt Q15059); assay: BROMOscan; type: binding; conditions: BROMOscan
T5 construct: T7 phage strains displaying bromodomains; host or cells: T7 phage display in E. coli host derived from BL21
T5 sequence (Q15059 306-415 limits assumed): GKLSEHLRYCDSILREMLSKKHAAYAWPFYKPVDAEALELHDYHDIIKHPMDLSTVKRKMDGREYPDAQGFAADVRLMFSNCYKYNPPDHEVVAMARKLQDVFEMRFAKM

[13] = molecular target: T6, BRD4(1) (Homo sapiens, UniProt O60885); assay: BROMOscan; type: binding; conditions: BROMOscan, n=2; read-out: dissociation constant (Kd) in complex with BRD4-BD1
T6 construct: T7 phage strains displaying bromodomains; host or cells: T7 phage display in E. coli host derived from BL21

[14] = molecular target: T7, CREBBP (Homo sapiens, UniProt Q92793); assay: BROMOscan; type: binding; conditions: BROMOscan; read-out: binding affinity to CREBBP
T7 construct: T7 phage strains displaying bromodomains; host or cells: T7 phage display in E. coli host derived from BL21
T7 sequence (Q92793 1085-1192 limits assumed): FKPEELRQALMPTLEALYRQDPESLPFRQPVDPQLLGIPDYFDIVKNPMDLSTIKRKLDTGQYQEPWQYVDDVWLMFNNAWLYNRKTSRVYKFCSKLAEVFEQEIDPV
Method: as §1, §2
(§3) Bromodomain profiling was carried out on the basis of BROMOscan™, which is a leading platform for identifying small molecule bromodomain inhibitors. BROMOscan™ employs a proprietary ligand binding site-directed competition assay to quantitatively measure interactions between test compounds and bromodomains. The reliable assay panel is suitable for high-throughput screening and delivers quantitative ligand binding data.
(§4) Compounds that bind the bromodomain prevent its binding to the immobilized ligand thus reducing the amount of protein captured. […] Hits are identified by measuring the amount of bromodomain captured in test versus control samples.
(§5) Bromodomain assays: T7 phage strains displaying bromodomains were grown in parallel in 24-well blocks in an E. coli host derived from the BL21 strain. E. coli were grown to log-phase and infected with T7 phage from a frozen stock (multiplicity of infection=0.4) and incubated with shaking at 32° C. until lysis (90-150 minutes). The lysates were centrifuged (5,000×g) and filtered (0.2 μm) to remove cell debris. […] The bound beads were blocked with excess biotin and washed with blocking buffer (SeaBlock (Pierce), 1% BSA, 0.05% Tween 20, 1 mM DTT) to remove unbound ligand and to reduce non-specific phage binding. […] Test compounds were prepared as 1000× stocks in 100% DMSO and subsequently diluted 1:25 in mono ethylene glycol (MEG). The compounds were then diluted directly into the assays such that the final concentrations of DMSO and MEG were 0.1% and 2.4%, respectively. All reactions were performed in polypropylene 384-well plates in a final volume of 0.02 ml. […] The bromodomain concentration in the eluates was measured by qPCR.
(§6) The % Ctrl values were determined as follows: % Ctrl=[(test compound signal-positive control signal)/(negative control signal-positive control signal)]×100
(§7) For 7 bromodomains other than the bromodomains from the BET family dissociation constants Kd were determined and the results are given in Table 3.

[15] = molecular target: T8, EP300 (Homo sapiens, UniProt Q09472); assay: BROMOscan; type: binding; conditions: BROMOscan; read-out: binding affinity to EP300
T8 construct: T7 phage strains displaying bromodomains; host or cells: T7 phage display in E. coli host derived from BL21
T8 sequence (Q09472 1049-1156 limits assumed): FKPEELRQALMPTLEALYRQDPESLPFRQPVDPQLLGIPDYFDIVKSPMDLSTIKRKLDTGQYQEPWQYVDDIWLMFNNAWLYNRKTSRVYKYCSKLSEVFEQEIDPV
Method: as §1, §2, §3, §4, §5, §6, §7

SMILES: CCc1c(C(=O)Nc2cc(S(=O)(=O)N(CC)CC)ccc2O)[nH]c(C)c1C(C)=O [compound of formula (4)]
- Kd ([1]; ITC, 25° C., read-out: dissociation constant Kd for BRD4-BD1): 300 nM
- Kd ([1]; Table 1, target not given, values of formula (4) and (3) match ITC Kd for BRD4-BD1, read-out: pKd (converted)): 316 nM
- antiproliferative activity against HeLa [2]: no antiproliferative activity
- activity against the leukaemia cell lines [3]: potent and selective activity
- sensitivity in the cell line screen (growth inhibition) [4]: most sensitive
- sensitivity in the cell line screen (growth inhibition) [5]: most sensitive
- sensitivity in the cell line screen (growth inhibition) [6]: most resistant
- sensitivity in the cell line screen (growth inhibition) [7]: most resistant
- LD50 ([8]; mice (male and female), single dose): higher than 2000 mg/kg of body weight
- signs of toxicity ([8]; mouse, in vivo, 2000 mg/kg): did not induce any signs of toxicity
- binding specificity within the human BRD family [9]: bind specifically to the BET bromodomain family
- affinity to BRD2-BD1 [10]: nM range
- affinity to BRD3 (both BRDs), BD1 [11]: nM range
- affinity to BRD3 (both BRDs), BD2 [12]: nM range
- Kd [13]: 160 nM
- Kd [14]: ~3500 nM
- Kd [15]: ~3500 nM
